Laboratory results taken from PubChem BioAssay (NCI).
Several values for one entry are separate records, joined by “and”; a condition that tells them apart may be missing. Identical values can stand only once.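 Test compounds were applied to cells in 96-well plates for 48 hours at 5 doses. Abbreviation: GI50, concentration required for 50% inhibition of growth. The concentration for full growth arrest is given as TGI.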

Tests used:
Test in all cases: NCI anticancer screen, dose series, 48 h
BT-549 breast = tested on: BT-549 breast
EKVX NSCLC = tested on: EKVX NSCLC
HS 578T breast = tested on: HS 578T breast
M14 melanoma = tested on: M14 melanoma
MALME-3M melanoma = tested on: MALME-3M melanoma
MCF7 breast = tested on: MCF7 breast
MDA-MB-231 breast = tested on: MDA-MB-231 breast
NCI-H226 lung = tested on: NCI-H226 lung
OVCAR-3 ovarian = tested on: OVCAR-3 ovarian
RXF 393 renal = tested on: RXF 393 renal

Compound | TGI (BT-549 breast) | TGI (EKVX NSCLC) | TGI (HS 578T breast) | TGI (M14 melanoma) | TGI (MALME-3M melanoma) | TGI (MCF7 breast) | TGI (MDA-MB-231 breast) | TGI (NCI-H226 lung) | TGI (OVCAR-3 ovarian) | TGI (RXF 393 renal) | GI50 (EKVX NSCLC) | GI50 (MCF7 breast) | GI50 (OVCAR-3 ovarian) | GI50 (RXF 393 renal)
C(=N\NC1=NCCCCN1)/c1ccc2ccccc2c1 | > 100 µM | > 100 µM | > 100 µM | 28 µM | 30.4 µM | 70.4 µM | 65.9 µM | 66.1 µM | > 100 µM | 60.8 µM | – | – | – | –
COc1ccc2[nH]c3ccc4cc[n+](CCN5CCC(C6CCN(CC[n+]7ccc8ccc9[nH]c%10ccc(OC)cc%10c9c8c7)CC6)CC5)cc4c3c2c1 | 50 µM | > 50 µM and 63.1 µM | 50 µM | > 50 µM | 50 µM | 50 µM and > 28.3 µM | 50 µM | 50 µM | 50 µM and > 76.2 µM | 50 µM and 10.8 µM | 3.19 µM | 0.313 µM and 0.488 µM | 42.6 µM | 38.1 µM
N=C1OC(CN2CCN(c3ccccc3)CC2)CN1C(=O)Nc1ccccc1 (configuration not stated) | > 100 µM | > 100 µM | > 100 µM | > 100 µM | > 100 µM | > 100 µM | > 100 µM | > 100 µM | – | > 100 µM | – | – | – | –
COc1cc(C[C@@]2(C)[C@@H]3CCC[C@H](CO)[C@@]3(C)CC[C@@H]2C)c(Cl)c(OC)c1 | 33.8 µM | 27.5 µM | 47.5 µM | 36.8 µM | 32 µM | 29.8 µM | 32.3 µM | 32.5 µM | 28.8 µM | 24.7 µM | – | – | – | –
CC(C)(C)OC(=O)NC(CSCc1ccc(C(=O)c2ccccc2)cc1)C(=O)N1CCN(CCCCN2c3ccccc3Sc3cc(N=[N+]=[N-])ccc32)CC1 (configuration not stated) | > 100 µM | > 100 µM | > 100 µM | > 100 µM | > 100 µM | > 100 µM | > 100 µM | > 100 µM | > 100 µM | > 100 µM | – | – | – | –
Cc1ccc([N+](=O)[O-])cc1S(=O)(=O)Nc1ccc(C2=NN(S(=O)(=O)c3cc([N+](=O)[O-])ccc3C)C(c3cccs3)C2)cc1 (configuration not stated) | > 100 µM | > 100 µM | 53.7 µM | > 100 µM | > 100 µM | 82.1 µM | > 100 µM | > 100 µM | 52.6 µM | > 100 µM | – | – | – | –
O=C(N/N=C\c1ccc(Cl)cc1)Nc1ccc2ccccc2c1 | > 100 µM | > 100 µM | 76.9 µM | > 100 µM | > 100 µM | > 100 µM | > 100 µM | > 100 µM | > 100 µM | > 100 µM | – | – | – | –
O=C(O)c1ccc2c(O)c(O)ccc2c1 | 40.8 µM | 47.7 µM | 70.9 µM | 61.8 µM | > 74.6 µM | > 100 µM | 68.5 µM | 44.3 µM | 34.5 µM | 42.5 µM | – | – | – | –
Cc1nc2c(Cl)cc(Cl)cc2c2c1CCO2 | > 100 µM | > 100 µM | > 100 µM | > 100 µM | > 100 µM | > 100 µM | > 100 µM | > 100 µM | – | > 100 µM | – | – | – | –
CC1=C[P+](c2ccccc2)(c2ccccc2)c2ccccc2O1 | > 100 µM | > 100 µM | 11.6 µM | > 100 µM | 61 µM | > 100 µM | 21.6 µM | 46.2 µM | 9.4 µM | > 100 µM | – | – | – | –
COc1ccc(-c2cc(-c3ccc(C)cc3)n(C3OC(COC(C)=O)C(OC(C)=O)C(OC(C)=O)C3OC(C)=O)c(=S)c2C#N)cc1 (configuration not stated) | > 100 µM | > 100 µM | > 100 µM | > 100 µM | > 100 µM | > 100 µM | > 100 µM | > 100 µM | > 100 µM | > 100 µM | – | – | – | –
N=c1oc2ccc3ccccc3c2cc1-c1nc2ccccc2c(=O)[nH]1 | 68.5 µM | > 100 µM | 87.6 µM | > 100 µM | > 100 µM | 30 µM | 73.4 µM | > 100 µM | – | 56.7 µM | – | – | – | –
O=C1/C(=C/c2cccc([N+](=O)[O-])c2)N=C(c2ccccc2)N1c1nc2ccc(Sc3ccccc3)cc2[nH]1 | > 100 µM | > 100 µM | > 100 µM | > 100 µM | > 100 µM | > 100 µM | > 100 µM | > 100 µM | – | > 100 µM | – | – | – | –
CCCCn1c(=O)[nH]c2c(N)ncnc21 | > 100 µM | > 100 µM | > 100 µM | > 100 µM | > 100 µM | > 100 µM | > 100 µM | > 100 µM | > 100 µM | > 100 µM | – | – | – | –
C/C(Cc1ccc2c(c1)OCO2)=N\N=c1\sc2ccccc2n1C | > 100 µM | > 100 µM | > 100 µM | > 100 µM | > 100 µM | > 100 µM | > 100 µM | > 100 µM | > 100 µM | > 100 µM | – | – | – | –
Cc1cc(=O)[nH]c2cc(NC(=O)C(C)NC(=O)C(C)NC(=O)C(C)NC(=O)OC(C)(C)C)ccc12 (configuration not stated) | > 15 µM | > 15 µM | > 15 µM | > 15 µM | – | > 15 µM | > 15 µM | > 15 µM | – | > 15 µM | – | – | – | –
O=c1c(NCc2ccccc2)c(C2(c3ccccc3F)SCCCS2)c1=O | > 100 µM | > 100 µM | > 100 µM | > 100 µM | – | > 100 µM | > 100 µM | > 100 µM | > 100 µM | > 100 µM | – | – | – | –
